“And” between values parts separate entries of the source, which are not always exact repeats. Equal entries are not always repeated.
System: 186277-243-T-J2-PDC spheroids with HUVEC/MSC, viability
Experiment: Anticancer human tumor 186277-243-T-J2-PDC patient-derived colon adenocarcinoma cell line growth inhibition [CLK]
Settings: for viability, T/C: stronger effect = lower value; for IC50: curve of compound
From the text: A high-throughput screen of multi-cell type tumor spheroids was designed to identify active combinations of […] and targeted small molecules. Complex spheroids include a stromal component modeled by human endothelial cells (HUVEC) and fibroblasts modeled by human mesenchymal stem cells (MSCs). The concentration ranges selected for each drug and investigational agent were based upon clinically achievable concentrations if the clinical Cmax of the agent was known.
Compounds. The drugs and investigational agents: cirtuvivint (SM08502; NSC835563), CC-671 (NSC850746), vemurafenib (NSC761431), tapotoclax (NSC804041), sotorasib (NSC818433), adagrasib (NSC831453), MRTX-1133 (NSC836407), BAY2416964 (NSC825713), copanlisib (NSC816437), inavolisib (NSC800729), abemaciclib (NSC768073), osimertinib (NSC779217), entinostat (NSC756642), eltanexor (KPT-8602, NSC794443), venetoclax (NSC766270), ceralasertib (NSC777638), bortezomib (NSC756655), olaparib (NSC753686), talazoparib (NSC767125), alisertib (NSC759677), peposertib (NSC802822), gemcitabine (NSC613327), 5-fluorouracil (NSC19893), SN-38 (NSC673596), oxaliplatin (NSC266046), paclitaxel (NSC125973), and doxorubicin (NSC123127), were obtained from the National Cancer Institute (NCI) Developmental Therapeutics Program Chemical Repository. The FDA-approved anticancer drug set is available from the Developmental Therapeutics Program at https://dtp.cancer.gov/organization/dscb/obtaining/available plates.htm. […] The stock solutions were prepared in dimethyl sulfoxide (DMSO, Sigma-Aldrich, St. Louis, MO, cat. D2650), except for the platinum complexes which were prepared in saline (Quality Biological, Gaithersburg, MD, cat. 114-055-101), at 800-fold the tested concentration and stored at -70 degrees C prior to their use. All drugs and investigational agents were tested over a range starting from a high concentration at or near the clinical Cmax and decreasing in half-log increments. If the clinical Cmax for an agent had not been determined, the highest concentration tested was 10 microM.
Cell Culture. All cells were maintained in an incubator at 37 degrees C and 5% CO2 with 95% humidity. The PDC lines were cultured according to standard operating procedures established by the NCI PDMR. Briefly, all PDCs were thawed and cultured in Matrigel-coated flasks prepared with a working solution of 1X Ham's F-12 nutrient mix, without supplementation (Invitrogen, Waltham, MA, cat. 11765054), 100 U/mL penicillin-streptomycin (Invitrogen, cat. 15140122), and 2.5% Matrigel (Corning Inc., Corning, NY, cat. 354248) for the first three passages. The 947758-054-R-J2-PDC line was cultured in 6B/Colon 1A media, which includes advanced DMEM/F-12 (Thermo Fisher Scientific, cat. 12634028), 10 mM HEPES (Thermo Fisher Scientific, cat. 15630080), 1X GlutaMAX supplement (Thermo Fisher Scientific, cat. 35050061), 0.1 mg/mL primocin (InvivoGen, cat. ant-pm-2), 10% defined fetal bovine serum, heat inactivated (HyClone Laboratories Inc., cat. SH30070.03HI), 1.25 mM N-Acetyl-L-cysteine (Sigma-Aldrich, cat. A9165), 10 mM nicotinamide (Sigma-Aldrich, cat. N0636), 1X B-27 supplement (Thermo Fisher Scientific, cat. 17504044), 1X N-2 supplement (Thermo Fisher Scientific, cat. 17502048), and 10 microM Y-27632 dihydrochloride (Tocris Bioscience, cat. 1254). The 876862-298-R-J1-PDC was cultured in 6E media, which includes all 6B/Colon 1A media components plus 50% L-WRN conditioned media (ATCC, cat. CRL-3276), 50 ng/mL recombinant human EGF recombinant protein (hEGF; Thermo Fisher Scientific, cat. PHG0311), 10 ng/mL recombinant human fibroblast growth factor 10 (hGFG-10; PeproTech, cat. 100-26), 1 ng/mL recombinant human fibroblast growth factor 2 (hFGF-2; PeproTech, cat. 100-18B), and 1 µM prostaglandin E2 (PGE2; Tocris, cat. 2296). The 227483-062-R1-J1-PDC line was cultured in Panc media, containing all 6E components except hFGF-2, with the addition of 500 nM SB-431542 (Selleckchem, cat. S1067) and 10 nM gastrin (Tocris, cat. 3006). […]
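Note: compound exposure lasted seven days before readout.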
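Throughout, for viability, T/C: 100% = DMSO vehicle control wells.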

SMILES | viability, T/C (compound 0.0316 µM) | viability, T/C (compound 0.1 µM) | viability, T/C (compound 0.316 µM) | viability, T/C (compound 1 µM) | viability, T/C (compound 3.16 µM) | viability, T/C (compound 10 µM) | IC50 | viability, T/C (compound 0.000949 µM) | viability, T/C (compound 0.003 µM) | viability, T/C (compound 0.00949 µM) | viability, T/C (compound 0.03 µM) | viability, T/C (compound 0.0949 µM) | viability, T/C (compound 0.3 µM) | viability, T/C (compound 0.00316 µM) | viability, T/C (compound 0.01 µM) | viability, T/C (compound 0.000316 µM) | viability, T/C (compound 0.001 µM) | viability, T/C (compound 0.949 µM) | viability, T/C (compound 3 µM)
C#Cc1c(F)ccc2cc(O)cc(-c3ncc4c(N5CC6CCC(C5)N6)nc(OCC56CCCN5CC(F)C6)nc4c3F)c12 (stereo not drawn) | 95.5% and 101% | 73.5% and 89.7% | 69.2% and 120% | 32% and 60% | 20.9% and 34.8% | 14.7% and 21.7% | 538 nM and 1440 nM | – | – | – | – | – | – | – | – | – | – | – | –
C=C(F)C(=O)N1CCN(c2nc(OCC3CCCN3C)nc3c2CCN(c2cccc4cccc(Cl)c24)C3)CC1CC#N (stereo not drawn) | 79% and 94.1% | 82.2% and 88.8% | 93% and 82.2% | 83.4% and 89.4% | 101% and 109% | – | 5270 nM and 7510 nM | – | – | – | – | – | – | – | – | – | – | – | –
C=CC(=O)N1CCN(c2nc(=O)n(-c3c(C)ccnc3C(C)C)c3nc(-c4c(O)cccc4F)c(F)cc23)C(C)C1 (stereo not drawn) | 103% and 87.6% | 91.4% and 96.3% | 97.5% and 90.2% | 80.2% and 105% | 107% and 105% | 95.2% and 98.2% | > 10000 nM | – | – | – | – | – | – | – | – | – | – | – | –
C=CC(=O)Nc1cc(Nc2nccc(-c3cn(C)c4ccccc34)n2)c(OC)cc1N(C)CCN(C)C | – | – | – | – | – | – | > 300 nM | 84.2% and 100% | 98.2% and 101% | 84.3% and 112% | 82.3% and 97.6% | 83.6% and 116% | 87.2% and 95.1% | – | – | – | – | – | –
CC(=O)O[C@H]1C(=O)[C@@]2(C)[C@H]([C@H](OC(=O)c3ccccc3)[C@]3(O)C[C@H](OC(=O)[C@H](O)[C@@H](NC(=O)c4ccccc4)c4ccccc4)C(C)=C1C3(C)C)[C@]1(OC(C)=O)CO[C@@H]1C[C@@H]2O | 25.2% and 16.5% | 12.1% and 8.36% | 11.6% and 7.98% | 10.8% and 6.74% | 8.76% and 8.77% | 10.4% and 7.1% | < 31.6 nM | – | – | – | – | – | – | – | – | – | – | – | –
CC(C)CC(NC(=O)C(Cc1ccccc1)NC(=O)c1cnccn1)B(O)O (stereo not drawn) | – | – | – | – | – | – | 4.44 nM and 3.22 nM | 95.9% and 106% | 75.5% and 53.2% | 0.47% and 2.37% | 0.24% and 0.94% | 0.79% and 3.7% | 0.71% and 0.52% | – | – | – | – | – | –
CC(CO)NC(=O)c1cc(-c2ccc(Cl)cc2)nn(-c2cnn(C)c2)c1=O (stereo not drawn) | 84.6% and 120% | 80.5% and 91.3% | 95.9% and 96.8% | 81% and 88.2% | 87.7% and 101% | 115% and 117% | > 10000 nM | – | – | – | – | – | – | – | – | – | – | – | –
CC(Nc1ccc2c(c1)OCCn1cc(N3C(=O)OCC3C(F)F)nc1-2)C(N)=O (stereo not drawn) | 96.2% | 103% and 104% | 80% and 80.6% | 65.2% and 58.1% | 58.7% and 53.7% | 49.9% and 37.6% | > 10000 nM and 2380 nM | – | – | – | – | – | – | – | – | – | – | – | –
CC1(C)CCC(CN2CCN(c3ccc(C(=O)NS(=O)(=O)c4ccc(NCC5CCOCC5)c([N+](=O)[O-])c4)c(Oc4cnc5[nH]ccc5c4)c3)CC2)=C(c2ccc(Cl)cc2)C1 | 94.3% and 88.2% | 85.8% and 90.3% | 97% and 104% | 86.5% and 99.3% | 106% and 110% | 10.5% and 10% | 5800 nM and 5950 nM | – | – | – | – | – | – | – | – | – | – | – | –
CC1COCCN1c1cc(C2(S(C)(=N)=O)CC2)nc(-c2ccnc3[nH]ccc23)n1 (stereo not drawn) | 103% and 82.6% | 85.5% and 88% | 96.9% and 95% | 122% and 103% | 41.2% and 34% | 15% and 13.5% | 2680 nM and 2310 nM | – | – | – | – | – | – | – | – | – | – | – | –
CCCS(=O)(=O)Nc1ccc(F)c(C(=O)c2c[nH]c3ncc(-c4ccc(Cl)cc4)cc23)c1F | 97.7% and 105% | 87.2% and 89.4% | 113% and 109% | 104% and 88.5% | 120% and 94% | 82.3% and 88% | > 10000 nM | – | – | – | – | – | – | – | – | – | – | – | –
CCN1CCN(Cc2ccc(Nc3ncc(F)c(-c4cc(F)c5nc(C)n(C(C)C)c5c4)n3)nc2)CC1 | 103% and 120% | 121% and 116% | 120% and 131% | 117% and 107% | – | – | > 1000 nM | – | – | – | – | – | – | 81% and 102% | 94.2% and 98.3% | – | – | – | –
CCc1c2c(nc3ccc(O)cc13)-c1cc3c(c(=O)n1C2)COC(=O)[C@]3(O)CC | 66.4% and 56.8% | 30.3% and 24.5% | 26% and 21.8% | 21.6% and 16.9% | – | – | 53.4 nM and 34.3 nM | – | – | – | – | – | – | 115% and 111% | 95.3% and 79.7% | – | – | – | –
COC1C=CCC(C)C(C)S(=O)(=O)NC(=O)c2ccc3c(c2)N(CC2CCC21)CC1(CCCc2cc(Cl)ccc21)CO3 (stereo not drawn) | 83.5% and 117% | 90% and 103% | 88.2% and 101% | 85.8% and 84.1% | 82.9% and 69.2% | 3.82% and 5.57% | 5110 nM and 4150 nM | – | – | – | – | – | – | – | – | – | – | – | –
COc1c(OCCCN2CCOCC2)ccc2c3n(c(=NC(=O)c4cnc(N)nc4)nc12)CCN3 | 63.3% and 52.9% | 40% and 23.9% | 23.7% and 13.1% | 15.5% and 8.53% | – | – | 63.6 nM and 34.6 nM | – | – | – | – | – | – | 84.7% and 90.2% | 91.5% and 103% | – | – | – | –
COc1cccc2c1C(=O)c1c(O)c3c(c(O)c1C2=O)CC(O)(C(=O)CO)CC3OC1CC(N)C(O)C(C)O1 (stereo not drawn) | 127% | 76.1% | 20.6% | 0.4% | 1.81% | 2.31% | 171 nM | – | – | – | – | – | – | – | – | – | – | – | –
Cn1ncnc1[C@H]1c2n[nH]c(=O)c3cc(F)cc(c23)N[C@@H]1c1ccc(F)cc1 | 115% and 127% | 121% and 134% | – | – | – | – | > 100 nM | – | – | – | – | – | – | 109% and 110% | 100% and 103% | 99.8% and 98.2% | 73.1% and 89.7% | – | –
NC(=O)C(=Cn1cnc(-c2cc(C(F)(F)F)cc(C(F)(F)F)c2)n1)c1cncnc1 | – | – | – | – | – | – | 186 nM and 175 nM | – | – | 88.2% and 88.1% | 84.5% and 87.8% | 113% and 107% | 18.2% and 10.8% | – | – | – | – | 4.07% and 5.27% | 1.81% and 3.46%
Nc1ccccc1NC(=O)c1ccc(CNC(=O)OCc2cccnc2)cc1 | 100% and 92.4% | 88.7% and 92% | 85.5% and 84.9% | 110% and 100% | 76.6% and 48% | 23.2% and 13.7% | 5600 nM and 3010 nM | – | – | – | – | – | – | – | – | – | – | – | –
Nc1ccn(C2OC(CO)C(O)C2(F)F)c(=O)n1 (stereo not drawn) | 15.6% and 11.9% | 15.7% and 12.4% | 15.3% and 12.4% | 17.3% and 13.5% | 19% and 14% | 20.5% and 13.1% | < 31.6 nM | – | – | – | – | – | – | – | – | – | – | – | –
O=C(c1cc(Cc2n[nH]c(=O)c3ccccc23)ccc1F)N1CCN(C(=O)C2CC2)CC1 | 102% | 90% and 99.4% | 101% and 109% | 114% and 110% | 118% and 119% | 126% and 103% | > 10000 nM | – | – | – | – | – | – | – | – | – | – | – | –
O=c1[nH]cc(F)c(=O)[nH]1 | 99.2% and 100% | 84.2% and 98.6% | 99% and 94.5% | 93.7% and 97% | 108% and 102% | 65.2% and 63% | > 10000 nM | – | – | – | – | – | – | – | – | – | – | – | –

From PubChem BioAssay AID2060625 (Molecular Pharmacology Branch, DTP, NCI, 2025)
